Columns and labels:
MCT1 = target: T1, MCT1 (Homo sapiens, UniProt P53985); test: SPA competition binding, […]-MCT1 ligand displacement on Jurkat cell membranes; also Ki […] on recombinant human MCT1 yeast membranes; conditions: read-out: AZD3965
T1 construct: gene SLC16A1
T1 sequence (P53985 1-500): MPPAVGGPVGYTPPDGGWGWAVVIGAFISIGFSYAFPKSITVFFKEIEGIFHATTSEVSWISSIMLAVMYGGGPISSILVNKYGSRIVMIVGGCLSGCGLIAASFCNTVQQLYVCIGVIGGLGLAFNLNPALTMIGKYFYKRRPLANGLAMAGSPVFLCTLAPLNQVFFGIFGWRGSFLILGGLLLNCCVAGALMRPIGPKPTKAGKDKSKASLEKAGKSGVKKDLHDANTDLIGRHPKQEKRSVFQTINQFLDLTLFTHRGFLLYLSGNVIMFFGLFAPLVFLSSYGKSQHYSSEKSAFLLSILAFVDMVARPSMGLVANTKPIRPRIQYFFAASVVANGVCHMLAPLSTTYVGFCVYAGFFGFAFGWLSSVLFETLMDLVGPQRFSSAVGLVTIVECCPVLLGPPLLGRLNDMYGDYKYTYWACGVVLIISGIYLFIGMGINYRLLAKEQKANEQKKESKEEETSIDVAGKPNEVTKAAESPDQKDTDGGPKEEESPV

MCT2 = target: T2, MCT2 (Homo sapiens, UniProt O60669); conditions: read-out: AZD3965
T2 construct: gene SLC16A7
T2 sequence (O60669 whole entry): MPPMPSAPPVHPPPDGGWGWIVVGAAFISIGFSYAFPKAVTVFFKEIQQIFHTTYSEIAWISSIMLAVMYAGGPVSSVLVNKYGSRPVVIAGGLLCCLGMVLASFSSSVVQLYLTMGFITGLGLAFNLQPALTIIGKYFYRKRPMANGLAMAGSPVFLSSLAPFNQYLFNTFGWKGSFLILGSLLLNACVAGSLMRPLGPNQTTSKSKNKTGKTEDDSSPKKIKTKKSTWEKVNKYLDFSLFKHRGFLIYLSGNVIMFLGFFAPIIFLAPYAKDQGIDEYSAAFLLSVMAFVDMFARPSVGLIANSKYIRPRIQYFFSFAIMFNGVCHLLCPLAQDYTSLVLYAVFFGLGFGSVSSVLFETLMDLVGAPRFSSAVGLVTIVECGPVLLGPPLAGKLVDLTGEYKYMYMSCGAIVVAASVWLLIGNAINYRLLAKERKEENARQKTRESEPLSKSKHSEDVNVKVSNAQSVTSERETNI

Ki (MCT1): 1.6 nM | Ki (MCT2): 20 nM
SMILES: Cc1[nH]nc(C(F)(F)F)c1Cc1sc2c(c1C(=O)N1C[C@](C)(O)CO1)c(=O)n(C)c(=O)n2C(C)C [AZD3965]

Reference: article PMC5642474, “Pre-clinical pharmacology of AZD3965, a selective inhibitor of MCT1: DLBCL, NHL and Burkitt’s lymphoma anti-tumor activity” (Oncotarget, 2017)
